Reference: patent US8633245B2, “PAI-1 inhibitor” (Institute of Medicinal Molecular Design, Inc., priority 2008, dated 2014)
pIC50: −log10 of the molar value. Where two headings read alike, the source gives them in different places.

Biological target: T1, recombinant human PAI-1 (Homo sapiens, UniProt P05121)
T1 construct: purchased Molecular Innovations, Inc
Assay: Test Example 2: human PAI-1 inhibitory activity (tPA fluorogenic substrate, pH 7.4 HEPES buffer)
Assay type: biochemical
Protocol: 0.1 M HEPES, 0.1 M NaCl. 1 mM EDTA. 0.1% Polyethylene glycol 8,000 (Hampton Research Corporation),
2 mM Dimethyldecylphoshine oxide [Apo-10] (Fluka Corporation)

[1] = human PAI-1, compound concentration 0.1 μM
[2] = human PAI-1, compound concentration 0.3 μM
[3] = human PAI-1, compound concentration 1 μM
[4] = human PAI-1, compound concentration 3 μM
[5] = human PAI-1, calculated from the inhibition rates
[6] = human PAI-1, compound concentration 0.1 μM, 0.1 µM
[7] = human PAI-1, compound concentration 0.3 μM, 0.3 µM
[8] = human PAI-1, compound concentration 1 μM, 1 µM
[9] = human PAI-1, compound concentration 3 μM, 3 µM
[10] = read-out: Inhibition Rate of PAI-1 Activity (%)

T1 sequence (P05121 24-402): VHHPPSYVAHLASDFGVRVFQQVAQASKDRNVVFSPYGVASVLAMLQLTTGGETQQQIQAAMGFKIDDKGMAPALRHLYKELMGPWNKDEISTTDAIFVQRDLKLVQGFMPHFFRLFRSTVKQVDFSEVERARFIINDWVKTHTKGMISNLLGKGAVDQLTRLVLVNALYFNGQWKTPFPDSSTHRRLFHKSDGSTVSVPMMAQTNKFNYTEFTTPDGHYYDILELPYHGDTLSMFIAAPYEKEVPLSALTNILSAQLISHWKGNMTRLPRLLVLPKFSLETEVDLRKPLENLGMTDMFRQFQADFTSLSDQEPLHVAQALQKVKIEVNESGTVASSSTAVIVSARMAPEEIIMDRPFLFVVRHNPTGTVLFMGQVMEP

| Structure (SMILES) | Inhibition Rate of PAI-1 Activity (%) [1] [%] | Inhibition Rate of PAI-1 Activity (%) [2] [%] | Inhibition Rate of PAI-1 Activity (%) [3] [%] | Inhibition Rate of PAI-1 Activity (%) [4] [%] | also measured |
| --- | --- | --- | --- | --- | --- |
| CC(C)(C)c1ccc(Oc2cc(OCC(=O)O)cc(-c3ccc(OC(F)(F)F)cc3)c2)cc1 [Compound 427] | 1 | 27 | 62 | 97 |  |
| CCCCC(Oc1ccc(-c2ccc(OC(F)(F)F)cc2)cc1OCc1ccc(C(C)(C)C)cc1)C(=O)O (stereo not shown) [Compound 310] |  |  |  |  | pIC50 [5]: 6.15 |
| CC(C)(C)c1cccc(Oc2ccc(-c3ccc(OC(F)(F)F)cc3)cc2OCC(=O)O)c1 [Compound 439] | 12 | 9 | 44 | >99 |  |
| CC(C)(C)c1ccc(COc2ccc(-c3ccc(OC(F)(F)F)cc3)cc2C(=O)O)cc1 [Compound 421] | 0 | 3 | 14 | 81 |  |
| CC(C)(C)C1CCC(N(C(=O)C(=O)O)c2ccc(-c3ccc(OC(F)(F)F)cc3)cc2)CC1 (stereo not shown) [Compound 666] |  |  |  |  | Inhibition Rate of PAI-1 Activity (%) [6]: 0%; Inhibition Rate of PAI-1 Activity (%) [7]: 21%; Inhibition Rate of PAI-1 Activity (%) [8]: 89%; Inhibition Rate of PAI-1 Activity (%) [9]: 98% |
| CC(C)(C)OCCOc1ccc(-c2ccc(OC(F)(F)F)cc2)cc1N(CCCCc1ccccc1)C(=O)C(=O)O [Compound 351] |  |  |  |  | pIC50 [5]: 5.71 |
| CC(C)(C)c1ccc(Oc2ccc(Nc3ccc(OC(F)(F)F)cc3)cc2/C=C/C(=O)O)cc1 [Compound 431] | 0 | 0 | 77 | >99 |  |
| CC(C)(C)c1ccc(Oc2cc(-c3ccc(OC(F)(F)F)cc3)ccc2C(=O)O)cc1 [Compound 434] | 14 | 8 | 66 | >99 |  |
| CCCCCOc1cc(-c2cccc(C(F)(F)F)c2)ccc1N(CCCCc1ccccc1)C(=O)C(=O)O [Compound 377] |  |  |  |  | pIC50: 6.32 |
| O=C(O)C(=O)N(CCCCc1ccccc1)c1cc(-c2ccc(OC(F)(F)F)cc2)ccc1OC1CCCCC1 [Compound 368] |  |  |  |  | pIC50: 6.35 |
| CC(C)(Oc1c(Oc2ccc(C(C)(C)C)cc2)cccc1-c1ccc(OC(F)(F)F)cc1)C(=O)O [Compound 251] |  |  |  |  | pIC50 [5]: 5.87 |
| CCCCCOc1cc(-c2ccc(OC(F)(F)F)cc2)ccc1N(CCCCc1ccccc1)C(=O)C(=O)O [Compound 367] |  |  |  |  | pIC50: 6.05 |
| CC(C)(C)c1cccc(Oc2cc(-c3ccc(OC(F)(F)F)cc3)ccc2/C=C/C(=O)O)c1 [Compound 335] |  |  |  |  | pIC50 [5]: 6.13; inhibition at 3 µM [10]: > 99% |
| CCCCCCOc1ccc(-c2ccc(OC(F)(F)F)cc2)cc1OC(CCCCCC)C(=O)O (stereo not shown) [Compound 429] | 7 | 9 | 93 | 95 |  |
| CCCCCOc1ccc(-c2ccc(OC(F)(F)F)cc2)cc1N(CCCCC)C(=O)C(=O)O [Compound 366] |  |  |  |  | pIC50: 5.97 |
| CCCCCOc1ccc(-c2cccc(C)c2)cc1N(CCCCc1ccccc1)C(=O)C(=O)O [Compound 379] |  |  |  |  | pIC50: 6.19 |
| CC(C)(C)C1CCC(N(C(=O)C(=O)O)c2ccc(-c3ccc(OC(F)(F)F)cc3)cc2)CC1 (stereo not shown) [Compound 665] |  |  |  |  | Inhibition Rate of PAI-1 Activity (%) [6]: 9%; Inhibition Rate of PAI-1 Activity (%) [7]: 8%; Inhibition Rate of PAI-1 Activity (%) [8]: 67%; Inhibition Rate of PAI-1 Activity (%) [9]: >99% |
| CC(C)c1ccc(-c2ccc(OCC(=O)O)c(Oc3ccc(C(C)(C)C)cc3)c2)cc1 [Compound 441] | 9 | 29 | 89 | 98 |  |
| CCCCCCCOc1cc(-c2ccc(OC(F)(F)F)cc2)ccc1N(CCCCc1ccccc1)C(=O)C(=O)O [Compound 386] |  |  |  |  | pIC50: 6.33; inhibition at 1 µM [10]: > 99%; inhibition at 3 µM [10]: > 99% |

The next lines start with results.

| Inhibition Rate of PAI-1 Activity (%) [1] [%] | Inhibition Rate of PAI-1 Activity (%) [2] [%] | Inhibition Rate of PAI-1 Activity (%) [3] [%] | Inhibition Rate of PAI-1 Activity (%) [4] [%] | Structure (SMILES) | also measured |
| --- | --- | --- | --- | --- | --- |
| 4 | 15 | 96 | >99 | CC(C)(C)c1ccc(Oc2ccc(-c3ccc(C(C)(C)C)cc3)cc2OCC(=O)O)cc1 [Compound 453] |  |
| 10 | 64 | 96 | 97 | CCCCCOc1cc(-c2ccc(OC(F)(F)F)cc2)ccc1CN(CC(=O)O)c1ccc(C(C)(C)C)cc1 [Compound 649] |  |
| 4 | 11 | 89 | >99 | CCC(CC)Oc1ccc(-c2ccc(OCC(=O)O)c(Oc3ccc(C(C)(C)C)cc3)c2)cc1 [Compound 447] |  |
| 9 | 20 | 93 | 99 | CC(C)(C)c1ccc(Oc2cc(-c3cc(Cl)ccc3Cl)ccc2OCC(=O)O)cc1 [Compound 455] |  |
| 15 | 20 | 99 | >99 | CCCCCN(C(=O)C(=O)O)c1cc(-c2ccc(OC(F)(F)F)cc2)ccc1OCCCOc1ccccc1 [Compound 657] |  |
| 0 | 0 | 15 | 74 | COc1ccc(-c2ccc(OC(F)(F)F)cc2)cc1N(CCCCc1ccccc1)C(=O)C(=O)O [Compound 651] |  |
| 7 | 13 | 70 | 98 | CC(C)(C)c1ccc(Oc2cc(-c3ccccc3OC(F)(F)F)ccc2OCC(=O)O)cc1 [Compound 456] |  |
| 14 | 72 | >99 | >99 | CC(C)c1ccc(-c2ccc(/C=C/C(=O)O)c(Sc3ccc(C(C)(C)C)cc3)c2)cc1 [Compound 520] |  |
| 6 | 26 | 95 | >99 | CCCCCOc1ccc(-c2ccc(OC(F)(F)F)cc2)cc1CN(C(=O)C(=O)O)c1ccc(C(C)(C)C)cc1 [Compound 645] |  |
| 3 | 0 | 44 | 97 | CCCCCOc1ccc(-c2ccc(OC(F)(F)F)cc2)cc1N(CCCOCc1ccccc1)C(=O)C(=O)O [Compound 655] |  |
| 4 | 15 | 38 | 86 | O=C(O)CCCCCCCCOc1ccc(-c2ccc(OC(F)(F)F)cc2)cc1N(CCCCc1ccccc1)C(=O)C(=O)O [Compound 646] |  |
| 3 | 24 | >99 | >99 | CC(C)(C)c1ccc(Oc2cc(-c3ccc(C(C)(C)C)cc3)ccc2CCC(=O)O)cc1 [Compound 497] |  |
| 6 | 10 | 66 | >99 | CC(C)c1ccccc1Oc1cc(-c2ccc(OC(F)(F)F)cc2)ccc1CCC(=O)O [Compound 491] |  |
| 0 | 10 | 36 | 91 | O=C(O)CCc1ccc(-c2ccc(OC(F)(F)F)cc2)cc1OCCCOCc1ccccc1 [Compound 488] |  |
| 9 | 53 | 95 | 95 | CCCCC(C(=O)O)N(Cc1ccc(C(C)(C)C)cc1)c1cccc(-c2ccc(OC(F)(F)F)cc2)c1 (stereo not shown) [Compound 641] |  |
| 2 | 11 | 43 | >99 | O=C(O)CCc1ccc(-c2ccc(OC(F)(F)F)cc2)cc1Oc1ccc(C(F)(F)F)cc1 [Compound 474] |  |
| 4 | 17 | 97 | >99 | CC(C)(C)c1ccc(Sc2cc(-c3ccc(OC(F)(F)F)cc3)ccc2C(=O)O)cc1 [Compound 547] |  |
| 12 | 59 | >99 | >99 | CC(C)(C)c1ccc(Oc2cc(Nc3ccc(OC(F)(F)F)cc3)ccc2CCC(=O)O)cc1 [Compound 532] |  |
| 3 | 13 | 84 | >99 | CC(C)(C)c1ccc(Oc2cc(-c3ccc(C(C)(C)C)cc3)ccc2OCC(=O)O)cc1 [Compound 446] |  |
| 17 | 21 | 93 | >99 | CC(C)(C)c1ccc(Sc2cc(-c3ccc(OC(F)(F)F)cc3)ccc2CC(=O)O)cc1 [Compound 530] |  |
| 16 | 39 | 98 | >99 | CC(C)c1ccc(Sc2cc(-c3ccc(OC(F)(F)F)cc3)ccc2/C=C/C(=O)O)cc1 [Compound 516] |  |
